Reference: patent publication US8273754B2, “Substituted 1H-pyrazolo[3,4-D]pyrimidine-6-amine compounds” (ArQule, Inc., priority 2008, dated 2012)
Like-named read-outs stand apart in the source and are kept apart here.

Tested on: cancer cells
Test: MTS cell growth inhibition assay (72 hours)
Assay type: cell-based
Experimental: Cells were maintained at 37° C., 5% CO2 in DMEM media supplemented with 1% fetal bovine serum, penicillin/streptomycin and fungizone (Invitrogen). Cells were seeded into 96-well tissue culture plates at 3000 per well and cultured at 37° C. for 18 hours. Test compounds were dissolved and diluted to 300× in DMSO then further diluted 1:40 in DMEM before addition to cells (1:7.5 dilution). Cells were incubated with test compounds for 72 hours followed by incubation with tetrazolium compound (3-(4,5-dimethylthiazol-2-yl)-5-(3-carboxymethoxyphenyl)-2-(4-sulfophenyl)-2H-tetrazolium, inner salt; MTS) and the electron coupling reagent, phenazine methosulfate (PMS) for 4 hours. […] The ability of compounds to inhibit cell growth in this assay is correlated with the reduction of dehydrogenase enzyme activity found in metabolically active cells. The measurement of the absorbance of the formazan was assessed using an ENVISION™ (Perkin Elmer) microplate reader at 492 nm. The calculated IC50 value is the concentration of the test compound that causes a 50% decrease in the absorbance. […] A=>79% inhibition, B=>50 to 79% inhibition, C=<50% inhibition.

[1] = Homo sapiens, DLD-1, 72 h, DLD-1 cells, read-out: DLD-1 MTS 72 hr at 10 μM
[2] = Homo sapiens, KATO III, 72 h, KATO III cells, read-out: KATO III MTS 72 hr at 10 μM
[3] = Homo sapiens, MDA-MB-231, 72 h, MDA-MB-231 cells, read-out: MDA-MB-231 MTS 72 hr at 10 μM
[4] = Homo sapiens, NCI-H1299, 72 h, NCI-H1299 cells, read-out: NCI-H1299 MTS 72 hr at 10 μM
[5] = PaCa-2, 72 h, PACA-2 cells, read-out: PACA-2 MTS 72 hr at 10 μM

Compound `Nc1nc(NC2Cc3ccccc3N(S(=O)(=O)c3ccc(Oc4ccccc4)nc3)C2)c2cn[nH]c2n1` (stereo not shown) [Compound 64, N4-(1-(6-phenoxypyridin-3-ylsulfonyl)-1,2,3,4-tetrahydroquinolin-3-yl)-1H-pyrazolo[3,4-d]pyrimidine-4,6-diamine] has an inhibition at 10 µM [1] of less than 50%, an inhibition at 10 µM [2] of less than 50% and an inhibition at 10 µM [3] of less than 50%. For the same compound, the inhibition at 10 µM [4] was less than 50% and the inhibition at 10 µM [5] was less than 50%.
Work on `Nc1nc(NC2Cc3ccccc3N(S(=O)(=O)c3ccc(NC(=O)Nc4ccccc4F)cc3)C2)c2cn[nH]c2n1` (stereo not shown) [Compound 191, 1-[4-({3-[(6-amino-1H-pyrazolo[3,4-d]pyrimidin-4-yl)amino]-3,4-dihydroquinolin-1(2H)-yl}sulfonyl)phenyl]-3-(2-fluorophenyl)urea] yielded an inhibition at 10 µM [1] of less than 50%, an inhibition at 10 µM [2] of less than 50% and an inhibition at 10 µM [3] of less than 50%. It also gave an inhibition at 10 µM [4] of less than 50% and an inhibition at 10 µM [5] of less than 50%.
In the case of `Nc1nc(NC2Cc3ccccc3N(S(=O)(=O)c3ccc(Oc4ccccc4)cc3)C2)c2cn[nH]c2n1` (stereo not shown) [Compound 27, N4-(1-(4-phenoxyphenylsulfonyl)-1,2,3,4-tetrahydroquinolin-3-yl)-1H-pyrazolo[3,4-d]pyrimidine-4,6-diamine], the inhibition at 10 µM [1] is reported as greater than 79%, the inhibition at 10 µM [2] is reported as greater than 79% and the inhibition at 10 µM [3] is reported as greater than 79%. For the same compound, the inhibition at 10 µM [4] was 50 to 79% and the inhibition at 10 µM [5] was greater than 79%.
Work on `Cc1ccc(C)c(CN2CC(Nc3nc(N)nc4[nH]ncc34)Cc3ccccc32)c1` (stereo not shown) [Compound 148, N4-[1-(2,5-dimethylbenzyl)-1,2,3,4-tetrahydroquinolin-3-yl]-1H-pyrazolo[3,4-d]pyrimidine-4,6-diamine] yielded an inhibition at 10 µM [1] greater than 79%, an inhibition at 10 µM [2] greater than 79% and an inhibition at 10 µM [3] of 50 to 79%. It also gave an inhibition at 10 µM [4] of 50 to 79% and an inhibition at 10 µM [5] greater than 79%.
In the case of `COc1ccc(CC(=O)N2CC(Nc3nc(N)nc4[nH]ncc34)Cc3ccccc32)cc1OC` (stereo not shown) [Compound 95, 1-(3-(6-amino-1H-pyrazolo[3,4-d]pyrimidin-4-ylamino)-3,4-dihydroquinolin-1(2H)-yl)-2-(3,4-dimethoxyphenyl)ethanone], the inhibition at 10 µM [1] is reported as less than 50%, the inhibition at 10 µM [2] is reported as less than 50% and the inhibition at 10 µM [3] is reported as less than 50%. The inhibition at 10 µM [4] was less than 50% and the inhibition at 10 µM [5] was less than 50%.
`COc1ccc(F)c(CN2CC(Nc3nc(N)nc4[nH]ncc34)Cc3ccccc32)c1` (stereo not shown) [Compound 142, N4-[1-(2-fluoro-5-methoxybenzyl)-1,2,3,4-tetrahydroquinolin-3-yl]-1H-pyrazolo[3,4-d]pyrimidine-4,6-diamine] gave an inhibition at 10 µM [1] of less than 50%, an inhibition at 10 µM [2] of 50 to 79% and an inhibition at 10 µM [3] of less than 50%. It also gave an inhibition at 10 µM [4] of less than 50% and an inhibition at 10 µM [5] greater than 79%.
In the case of `COc1ccc(OC)c(S(=O)(=O)N2CCC(Nc3nc(N)nc4[nH]ncc34)Cc3ccccc32)c1` (stereo not shown) [Compound 176, N4-{1-[(2,5-dimethoxyphenyl)sulfonyl]-2,3,4,5-tetrahydro-1H-1-benzazepin-4-yl}-1H-pyrazolo[3,4-d]pyrimidine-4,6-diamine], the inhibition at 10 µM [1] is reported as less than 50%, the inhibition at 10 µM [2] is reported as less than 50% and the inhibition at 10 µM [3] is reported as less than 50%. For the same compound, the inhibition at 10 µM [4] was less than 50% and the inhibition at 10 µM [5] was less than 50%.
For `Nc1nc(NC2Cc3ccccc3N(S(=O)(=O)c3cccc(NC(=O)Nc4c(F)cc(Br)cc4F)c3)C2)c2cn[nH]c2n1` (stereo not shown) [Compound 206, 1-[3-({3-[(6-amino-1H-pyrazolo[3,4-d]pyrimidin-4-yl)amino]-3,4-dihydroquinolin-1(2H)-yl}sulfonyl)phenyl]-3-(4-bromo-2,6-difluorophenyl)urea], the inhibition at 10 µM [1] was less than 50%, the inhibition at 10 µM [2] was 50 to 79% and the inhibition at 10 µM [3] was less than 50%. It also gave an inhibition at 10 µM [4] of less than 50% and an inhibition at 10 µM [5] of 50 to 79%.
In the case of `Cc1ccccc1-n1ncc(CN2CC(Nc3nc(N)nc4[nH]ncc34)Cc3ccccc32)c1C` (stereo not shown) [Compound 161, N4-(1-{[5-methyl-1-(2-methylphenyl)-1H-pyrazol-4-yl]methyl}-1,2,3,4-tetrahydroquinolin-3-yl)-1H-pyrazolo[3,4-d]pyrimidine-4,6-diamine], the inhibition at 10 µM [1] is reported as less than 50%, the inhibition at 10 µM [2] is reported as less than 50% and the inhibition at 10 µM [3] is reported as less than 50%. It also gave an inhibition at 10 µM [4] of less than 50% and an inhibition at 10 µM [5] of less than 50%.
Work on `N#Cc1cccc(S(=O)(=O)N2CCC(Nc3nc(N)nc4[nH]ncc34)Cc3ccccc32)c1` (stereo not shown) [Compound 180, 3-({4-[(6-amino-1H-pyrazolo[3,4-d]pyrimidin-4-yl)amino]-2,3,4,5-tetrahydro-1H-1-benzazepin-1-yl}sulfonyl)benzonitrile] yielded an inhibition at 10 µM [1] of less than 50%, an inhibition at 10 µM [2] of less than 50% and an inhibition at 10 µM [3] of less than 50%. For the same compound, the inhibition at 10 µM [4] was less than 50% and the inhibition at 10 µM [5] was less than 50%.
`CC1(C(=O)N2CC(Nc3nc(N)nc4[nH]ncc34)Cc3ccccc32)CCCCC1` (stereo not shown) [Compound 96, (3-(6-amino-1H-pyrazolo[3,4-d]pyrimidin-4-ylamino)-3,4-dihydroquinolin-1(2H)-yl)(1-methylcyclohexyl)methanone] showed an inhibition at 10 µM [1] of less than 50%, an inhibition at 10 µM [2] of less than 50% and an inhibition at 10 µM [3] of less than 50%. The inhibition at 10 µM [4] was less than 50% and the inhibition at 10 µM [5] was less than 50%.
`Nc1nc(NC2Cc3ccccc3N(C(=O)Nc3ccc(C(F)(F)F)cc3)C2)c2cn[nH]c2n1` (stereo not shown) [Compound 117, 3-(6-amino-1H-pyrazolo[3,4-d]pyrimidin-4-ylamino)-N-(4-(trifluoromethyl)phenyl)-3,4-dihydroquinoline-1(2H)-carboxamide] was tested, and the inhibition at 10 µM [1] was less than 50%, the inhibition at 10 µM [2] was less than 50% and the inhibition at 10 µM [3] was less than 50%. For the same compound, the inhibition at 10 µM [4] was less than 50% and the inhibition at 10 µM [5] was less than 50%.
`Nc1nc(NC2Cc3ccccc3N(S(=O)(=O)c3ccc(C(F)(F)F)cc3Cl)C2)c2cn[nH]c2n1` (stereo not shown) [Compound 74, N4-(1-(2-chloro-4-(trifluoromethyl)phenylsulfonyl)-1,2,3,4-tetrahydroquinolin-3-yl)-1H-pyrazolo[3,4-d]pyrimidine-4,6-diamine] was tested, and the inhibition at 10 µM [1] was less than 50%, the inhibition at 10 µM [2] was less than 50% and the inhibition at 10 µM [3] was less than 50%. It also gave an inhibition at 10 µM [4] of less than 50% and an inhibition at 10 µM [5] of less than 50%.
For `Nc1nc(NC2Cc3ccccc3N(S(=O)(=O)c3cccc(NC(=O)Nc4cc(C(F)(F)F)ccc4F)c3)C2)c2cn[nH]c2n1` (stereo not shown) [Compound 220, 1-[3-({3-[(6-amino-1H-pyrazolo[3,4-d]pyrimidin-4-yl)amino]-3,4-dihydroquinolin-1(2H)-yl}sulfonyl)phenyl]-3-[2-fluoro-5-(trifluoromethyl)phenyl]urea], the inhibition at 10 µM [1] was greater than 79%, the inhibition at 10 µM [2] was greater than 79% and the inhibition at 10 µM [3] was greater than 79%. The inhibition at 10 µM [4] was greater than 79% and the inhibition at 10 µM [5] was greater than 79%.
`Nc1nc(NC2Cc3ccccc3N(S(=O)(=O)c3cccc(NC(=O)NCc4ccccc4)c3)C2)c2cn[nH]c2n1` (stereo not shown) [Compound 210, 1-[3-({3-[(6-amino-1H-pyrazolo[3,4-d]pyrimidin-4-yl)amino]-3,4-dihydroquinolin-1(2H)-yl}sulfonyl)phenyl]-3-benzylurea] showed an inhibition at 10 µM [1] of less than 50%, an inhibition at 10 µM [2] of less than 50% and an inhibition at 10 µM [3] of less than 50%. It also gave an inhibition at 10 µM [4] of less than 50% and an inhibition at 10 µM [5] of less than 50%.
In the case of `Nc1nc(NC2Cc3ccccc3N(C(=O)c3c(F)cc(F)cc3F)C2)c2cn[nH]c2n1` (stereo not shown) [Compound 89, (3-(6-amino-1H-pyrazolo[3,4-d]pyrimidin-4-ylamino)-3,4-dihydroquinolin-1(2H)-yl)(2,4,6-trifluorophenyl)methanone], the inhibition at 10 µM [1] is reported as less than 50%, the inhibition at 10 µM [2] is reported as less than 50% and the inhibition at 10 µM [3] is reported as less than 50%. It also gave an inhibition at 10 µM [4] of less than 50% and an inhibition at 10 µM [5] of less than 50%.
With `Cc1cccc(NC(=O)Nc2cccc(S(=O)(=O)N3CC(Nc4nc(N)nc5[nH]ncc45)Cc4ccccc43)c2)c1` (stereo not shown) [Compound 205, 1-[3-({3-[(6-amino-1H-pyrazolo[3,4-d]pyrimidin-4-yl)amino]-3,4-dihydroquinolin-1(2H)-yl}sulfonyl)phenyl]-3-(3-methylphenyl)urea] the inhibition at 10 µM [1] was 50 to 79%, the inhibition at 10 µM [2] was greater than 79% and the inhibition at 10 µM [3] was 50 to 79%. For the same compound, the inhibition at 10 µM [4] was less than 50% and the inhibition at 10 µM [5] was greater than 79%.
In the case of `Nc1nc(NC2Cc3ccccc3N(S(=O)(=O)c3ccc(NC(=O)Nc4ccc(F)c(F)c4)cc3)C2)c2cn[nH]c2n1` (stereo not shown) [Compound 194, 1-[4-({3-[(6-amino-1H-pyrazolo[3,4-d]pyrimidin-4-yl)amino]-3,4-dihydroquinolin-1(2H)-yl}sulfonyl)phenyl]-3-(3,4-difluorophenyl)urea], the inhibition at 10 µM [1] is reported as greater than 79%, the inhibition at 10 µM [2] is reported as greater than 79% and the inhibition at 10 µM [3] is reported as greater than 79%. The inhibition at 10 µM [4] was greater than 79% and the inhibition at 10 µM [5] was greater than 79%.
Work on `COc1cccc(S(=O)(=O)N2CC(Nc3nc(N)nc4[nH]ncc34)Cc3ccccc32)c1` (stereo not shown) [Compound 24, N4-(1-(3-methoxyphenylsulfonyl)-1,2,3,4-tetrahydroquinolin-3-yl)-1H-pyrazolo[3,4-d]pyrimidine-4,6-diamine] yielded an inhibition at 10 µM [1] of less than 50%, an inhibition at 10 µM [2] greater than 79% and an inhibition at 10 µM [3] of less than 50%. It also gave an inhibition at 10 µM [4] of less than 50% and an inhibition at 10 µM [5] of less than 50%.
With `CCc1ccc(S(=O)(=O)N2CCC(Nc3nc(N)nc4[nH]ncc34)Cc3ccccc32)cc1` (stereo not shown) [Compound 172, N4-{1-[(4-ethylphenyl)sulfonyl]-2,3,4,5-tetrahydro-1H-1-benzazepin-4-yl}-1H-pyrazolo[3,4-d]pyrimidine-4,6-diamine] the inhibition at 10 µM [1] was less than 50%, the inhibition at 10 µM [2] was less than 50% and the inhibition at 10 µM [3] was less than 50%. For the same compound, the inhibition at 10 µM [4] was less than 50% and the inhibition at 10 µM [5] was less than 50%.
